Laboratory results taken from patent US12064459B2, “Compositions and methods for improving skin health and for the treatment and prevention of diseases, disorders and conditions associated with pathogenic microbes” (priority 2019, dated 2024).
In brackets after ≈: the same amount, converted by molar mass.

Experiments:
[1] = tested on: DBI001; assay: Biolog phenotype MicroArrays: components enhancing function (efficacy) against fungal or bacterial pathogens; type: cell-based; settings: enhancing function of human-derived Janthinobacterium lividum
[2] = tested on: E. Coli ATCC25922; assay: Antibiotic MIC tests; type: cell-based; settings: Escherichia coli
[3] = tested on: DB02378; assay: Antibiotic MIC tests; type: cell-based, Janthinobacterium lividum; settings: Janthinobacterium lividum; strain DB02378; read-out: MIC
Description: (§1) The antibiotic resistance profile and MICs tests were performed using Janthinobacterium lividum grown from cultures purified and grown in vegitone LB broth.

[4] = tested on: DB00121; assay: Antibiotic MIC tests; type: cell-based, Janthinobacterium lividum; settings: Janthinobacterium lividum; strain DB00121; read-out: MIC
Description: as §1

[5] = tested on: DB00118; assay: Antibiotic MIC tests; type: cell-based, Janthinobacterium lividum; settings: Janthinobacterium lividum; strain DB00118; read-out: MIC
Description: as §1

[6] = tested on: DB02473; assay: Antibiotic MIC tests; type: cell-based, Janthinobacterium lividum; settings: Janthinobacterium lividum; strain DB02473; read-out: MIC
Description: as §1

| Molecule | Concentration Range of Efficacy [1] [mM] | further results |
| --- | --- | --- |
| CC(O)CO (centres unmarked) [1,2-Propanediol] | 2 to 20 |  |
| O=[N+]([O-])O [Nitrate] | 0.1 to 1 |  |
| OC[C@@H](O)[C@H](O)[C@H](O)[C@@H](O)CO [Dulcitol] | 2 to 20 |  |
| CO[C@H]1O[C@H](CO)[C@@H](O)[C@H](O)[C@H]1O [α-Methyl-D-Glucoside] | 1 to 5 |  |
| Mannan | 1 to 5 |  |
| OC[C@H]1O[C@@H](O[C@H]2[C@H](O)[C@@H](O)[C@H](O)O[C@@H]2CO)[C@H](O)[C@@H](O)[C@@H]1O [D-Cellobiose] | 2 to 20 |  |
| OC[C@H]1O[C@@H]2O[C@H]3[C@H](O)[C@@H](O)[C@@H](O[C@H]4[C@H](O)[C@@H](O)[C@@H](O[C@H]5[C@H](O)[C@@H](O)[C@@H](O[C@H]6[C@H](O)[C@@H](O)[C@@H](O[C@H]7[C@H](O)[C@@H](O)[C@@H](O[C@H]1[C@H](O)[C@H]2O)O[C@@H]7CO)O[C@@H]6CO)O[C@@H]5CO)O[C@@H]4CO)O[C@@H]3CO [α-Cyclodextrin] | 1 to 5 |  |
| OC[C@@]12OC[C@@H](O1)[C@@H](O)[C@@H](O)[C@@H]2O [Sedoheptulosan] | 1 to 5 |  |
| OC[C@H](O)C(O)[C@@H](O)CO [L-Arabitol] | 1 to 5 |  |
| COC1OCC(O)C(O)C1O [β-Methyl-D-Xyloside] | 1 to 5 |  |
| OC[C@@H](O)C(O)[C@H](O)CO [D-Arabitol] | 1 to 5 |  |
| O=C(CO)[C@@H](O)[C@H](O)[C@H](O)CO [D-Fractose] | 2 to 20 |  |
| dextrin | 1 to 5 |  |
| CCC[C@@H]1C[C@@H](C(=O)N[C@@H]([C@H]2O[C@H](SC)[C@H](O)[C@@H](O)[C@H]2O)[C@H](C)Cl)N(C)C1 [Clindamycin] |  | MIC [2]: < 64 µg/mL; MIC [3]: 32 µg/mL (≈ 75.3 µM); MIC [4]: 16 µg/mL (≈ 37.6 µM); MIC [5]: 32 µg/mL (≈ 75.3 µM); MIC [6]: 16 µg/mL (≈ 37.6 µM) |
| OC[C@H]1O[C@H](OC[C@H]2OC(O)(CO)[C@@H](O)[C@@H]2O)[C@H](O)[C@@H](O)[C@@H]1O (some centres unmarked) [Palatinose] | 1 to 5 |  |
| OC[C@@H](O)[C@@H](O[C@H]1O[C@H](CO)[C@@H](O)[C@H](O)[C@H]1O)[C@H](O)[C@@H](O)CO [Maltitol] | 1 to 5 |  |
| Glycogen | 1 to 5 |  |
| OC[C@@H](O)[C@@H](O)CO [i-Erythritol] | 1 to 5 |  |
| Nc1ncnc2c1ncn2C1CC(O)C(CO)O1 (centres unmarked) [2-Deoxy Adenosine] | 2 to 20 |  |
| O=CC[C@H](O)[C@H](O)CO [2-Deoxy-DRibose] | 1 to 5 |  |
| CN(C)[C@@H]1C(O)=C(C(N)=O)C(=O)[C@@]2(O)C(O)=C3C(=O)c4c(O)cccc4[C@@](C)(O)[C@H]3C[C@@H]12 [Tetracycline] |  | MIC [2]: 1 µg/mL (≈ 2.25 µM); MIC [3]: 0.5 µg/mL (≈ 1.13 µM); MIC [4]: 0.25 µg/mL (≈ 0.563 µM); MIC [5]: 0.5 µg/mL (≈ 1.13 µM); MIC [6]: 0.5 µg/mL (≈ 1.13 µM) |
| Tween 40 | 2 to 20 |  |
| O=C(O)[C@@H](O)[C@H](O)C(=O)O [D-Tartaric acid] | 1 to 5 |  |
| OC[C@H]1O[C@@H]2O[C@H]3[C@H](O)[C@@H](O)[C@@H](O[C@H]4[C@H](O)[C@@H](O)[C@@H](O[C@H]5[C@H](O)[C@@H](O)[C@@H](O[C@H]6[C@H](O)[C@@H](O)[C@@H](O[C@H]7[C@H](O)[C@@H](O)[C@@H](O[C@H]8[C@H](O)[C@@H](O)[C@@H](O[C@H]9[C@H](O)[C@@H](O)[C@@H](O[C@H]1[C@H](O)[C@H]2O)O[C@@H]9CO)O[C@@H]8CO)O[C@@H]7CO)O[C@@H]6CO)O[C@@H]5CO)O[C@@H]4CO)O[C@@H]3CO [g-Cyclodextrin] | 1 to 5 |  |
| NC(N)=O [Urea] | 0.1 to 1 |  |
| OC[C@H]1O[C@@H]2O[C@H]3[C@H](O)[C@@H](O)[C@@H](O[C@H]4[C@H](O)[C@@H](O)[C@@H](O[C@H]5[C@H](O)[C@@H](O)[C@@H](O[C@H]6[C@H](O)[C@@H](O)[C@@H](O[C@H]7[C@H](O)[C@@H](O)[C@@H](O[C@H]8[C@H](O)[C@@H](O)[C@@H](O[C@H]1[C@H](O)[C@H]2O)O[C@@H]8CO)O[C@@H]7CO)O[C@@H]6CO)O[C@@H]5CO)O[C@@H]4CO)O[C@@H]3CO [β-Cyclodextrin] | 1 to 5 |  |
| CC[C@H]1OC(=O)[C@H](C)[C@@H](O[C@H]2C[C@@](C)(OC)[C@@H](O)[C@H](C)O2)[C@H](C)[C@@H](O[C@@H]2O[C@H](C)C[C@H](N(C)C)[C@H]2O)[C@](C)(O)C[C@@H](C)CN(C)[C@H](C)[C@@H](O)[C@]1(C)O [Azithromycin] |  | MIC [2]: 8 µg/mL (≈ 10.7 µM); MIC [3]: 2 µg/mL (≈ 2.67 µM); MIC [4]: 0.5 µg/mL (≈ 0.668 µM); MIC [5]: 8 µg/mL (≈ 10.7 µM); MIC [6]: 1 µg/mL (≈ 1.34 µM) |
| Laminarin | 1 to 5 |  |
| CO[C@@H]1O[C@H](C(=O)O)[C@@H](O)[C@H](O)[C@H]1O [β-Methyl-D-Glucuronic Acid] | 1 to 5 |  |
